Source: patent publication US11696913B2, “Prolonged ectoparasite-controlling agent for animal” (MITSUI CHEMICALS AGRO, INC., priority 2017, dated 2023)

Tests used:
[1] = tested on: Spodoptera litura; assay: Insecticidal testing against common cutworm; assay type: in vivo; conditions: foliar, 144 h, concentration 100 ppm, cabbage leaf dip, second-stage larvae, after 6 days, read-out: pesticidal rate
Text: Insecticidal Testing Against Common Cutworm (Spodoptera litura)

[2] = tested on: Rhipicephalus (Boophilus) microplus; assay: In vitro injection test with Rhipicephalus (Boophilus) microplus (BOOPMI Inj); conditions: 168 h, laid fertile eggs after 7 days, read-out: acaricidal activity; for pest or weed control at 32 ng: dose 0.032 μg/animal injected; for pest or weed control at 0.00016 mg: dose 0.16 μg/animal injected; for pest or weed control at 0.0008 mg: dose 0.8 μg/animal injected; for pest or weed control at 6.4 ng: dose 0.0064 μg/animal injected
Summary of the method: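 Five engorged adult females each get a 1 μl abdominal injection of compound dissolved and diluted in DMSO. Kept 7 days at 28° C./85% rel. hum.; percent activity rates egg laying and egg fertility (0% all fertile, 100% none laid or infertile).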

[3] = tested on: Amblyomma americanum; assay: In vitro contact test with hard ticks (Amblyomma americanum nymphs); conditions: read-out: acaricidal activity; for pest or weed control at 0.2 µg/cm2, 0.2 µg/cm2: dose 0.2 μg/cm^2, 48 h; for pest or weed control at 1 µg/cm2, 1 µg/cm2: dose 1 μg/cm^2, 48 h; for pest or weed control at 0.04 µg/cm2, 0.04 µg/cm2: dose 0.04 μg/cm^2, 48 h
Summary of the method: (§1)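 Acaricidal activity = % ticks dead or moribund after 48 h contact with acetone-deposited compound on vial walls (e.g., 900 ppm solution → 5 μg/cm^2). Ambient conditions for R. sanguineus, 21° C./85% rel. hum. for other species; heat challenge at 45-50° C. separated climbers from moribund ticks.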

[4] = tested on: Laodelphax striatellus; assay: Insecticidal testing against small brown planthopper; assay type: in vivo; conditions: 144 h, concentration 100 ppm, sprayed rice seedlings, after 6 days, read-out: pesticidal rate
Summary of the method: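 Acetone solution of compound at a set concentration sprayed onto rice seedlings, air-dried, then exposed to 10 planthoppers (one group). Held at 25° C; survival rate recorded after 6 days.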

[5] = tested on: Rhipicephalus sanguineus; assay: In vitro contact test with adult hard ticks (Rhipicephalus sanguineus); conditions: read-out: acaricidal activity; for pest or weed control at 0.04 µg/cm2, 0.04 µg/cm2: dose 0.04 μg/cm^2, 48 h; for pest or weed control at 0.2 µg/cm2, 0.2 µg/cm2: dose 0.2 μg/cm^2, 48 h; for pest or weed control at 1 µg/cm2, 1 µg/cm2: dose 1 μg/cm^2, 48 h
Summary of the method: as §1

[6] = tested on: Dermacentor variabilis; assay: In vitro contact test with adult hard ticks (Dermacentor variabilis); conditions: read-out: acaricidal activity; for pest or weed control at 0.04 µg/cm2, 0.04 µg/cm2: dose 0.04 μg/cm^2, 48 h; for pest or weed control at 0.2 µg/cm2, 0.2 µg/cm2: dose 0.2 μg/cm^2, 48 h; for pest or weed control at 1 µg/cm2, 1 µg/cm2: dose 1 μg/cm^2, 48 h
Summary of the method: as §1

[7] = tested on: Plutella xylostella; assay: Insecticidal testing against diamondback moth; assay type: in vivo; conditions: foliar, 144 h, concentration 100 ppm, cabbage leaf dip, third-stage larvae, after 6 days, read-out: pesticidal rate
Text: Insecticidal Testing Against Diamondback Moth (Plutella xylostella)

[8] = tested on: Ctenocephalides felis; assay: Ctenocephalides felis in-vitro feeding test with fleas (CTECFE oral); conditions: 48 hours, read-out: insecticidal feeding activity; for pest or weed control at 0.16 ppm: dose 0.16 ppm in citrated cattle blood; for pest or weed control at 0.8 ppm: dose 0.8 ppm in citrated cattle blood; for pest or weed control at 4 ppm: dose 4 ppm in citrated cattle blood; for pest or weed control at 0.032 ppm: dose 0.032 ppm in citrated cattle blood
Summary of the method: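 Scored as percent fleas killed (0–100%) 48 hours after feeding began. Compound, dissolved in DMSO and diluted into citrated cattle blood, was offered via a parafilm membrane to roughly 20 adult male and female C. felis at about 37° C.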

[9] = tested on: Ixodes ricinus; assay: In vitro contact test with adult hard ticks (Ixodes ricinus); conditions: read-out: acaricidal activity; for pest or weed control at 0.2 µg/cm2, 0.2 µg/cm2: dose 0.2 μg/cm^2, 48 h; for pest or weed control at 1 µg/cm2, 1 µg/cm2: dose 1 μg/cm^2, 48 h; for pest or weed control at 5 µg/cm2, 5 µg/cm2: dose 5 μg/cm^2, 48 h
Summary of the method: as §1

[10] = tested on: Ctenocephalides felis; assay: In vitro contact test with fleas; conditions: read-out: insecticidal activity; for pest or weed control at 0.04 µg/cm2, 0.04 µg/cm2: dose 0.04 μg/cm^2, dead or moribund fleas after 48 h; for pest or weed control at 0.2 µg/cm2, 0.2 µg/cm2: dose 0.2 μg/cm^2, dead or moribund fleas after 48 h; for pest or weed control at 1 µg/cm2, 1 µg/cm2: dose 1 μg/cm^2, dead or moribund fleas after 48 h
Summary of the method: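 Activity is the percentage of fleas dead or moribund at 48 h, judged by immobility or uncoordinated movement after tapping. Tubes were coated by evaporating acetone solutions (900 ppm gives 5 μg/cm^2), then held 5-10 adult fleas of both sexes at room temperature and ambient humidity.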

Structure (SMILES) | pest or weed control at 100 ppm [1] [%] | pest or weed control at 32 ng [2] [%] | pest or weed control at 0.00016 mg [2] [%] | pest or weed control at 0.0008 mg [2] [%] | pest or weed control at 0.2 µg/cm2, 0.2 µg/cm2 [3] [%] | pest or weed control at 1 µg/cm2, 1 µg/cm2 [3] [%] | pest or weed control at 100 ppm [4] [%] | pest or weed control at 0.2 µg/cm2, 0.2 µg/cm2 [5] [%] | pest or weed control at 1 µg/cm2, 1 µg/cm2 [5] [%] | pest or weed control at 0.2 µg/cm2, 0.2 µg/cm2 [6] [%] | pest or weed control at 1 µg/cm2, 1 µg/cm2 [6] [%] | pest or weed control at 100 ppm [7] [%] | pest or weed control at 0.16 ppm [8] [%] | pest or weed control at 0.8 ppm [8] [%] | pest or weed control at 4 ppm [8] [%] | pest or weed control at 0.2 µg/cm2, 0.2 µg/cm2 [9] [%] | pest or weed control at 1 µg/cm2, 1 µg/cm2 [9] [%] | pest or weed control at 5 µg/cm2, 5 µg/cm2 [9] [%] | pest or weed control at 0.2 µg/cm2, 0.2 µg/cm2 [10] [%] | pest or weed control at 1 µg/cm2, 1 µg/cm2 [10] [%] | other results
O=C(Nc1cccc(C(=O)Nc2c(I)cc(C(F)(C(F)(F)F)C(F)(F)F)cc2OC(F)(F)F)c1F)c1ccc(F)cc1 [Compound 73] | ≥ 70 | 100 | 100 | 100 | 90 | 90 | ≥ 70 | 90 | 90 | 90 | 90 | ≥ 70 | 95 | 95 | 95 | 90 | 90 | 90 | 95 | 95 | pest or weed control at 0.04 µg/cm2, 0.04 µg/cm2 [5]: 90%; pest or weed control at 0.04 µg/cm2, 0.04 µg/cm2 [6]: 90%; pest or weed control at 0.04 µg/cm2, 0.04 µg/cm2 [10]: 95%
CN(C(=O)c1ccc(F)cc1)c1cccc(C(=O)Nc2c(Br)cc(C(F)(C(F)(F)F)C(F)(F)F)cc2OC(F)F)c1F [Compound 89] | ≥ 70 | 100 | 100 | 100 |  | 90 | ≥ 70 | 90 | 90 | 90 | 90 | ≥ 70 | 95 | 95 | 95 | 90 | 90 | 90 | 95 | 95 | pest or weed control at 6.4 ng [2]: 100%; pest or weed control at 0.032 ppm [8]: 95%; pest or weed control at 0.04 µg/cm2, 0.04 µg/cm2 [10]: 95%
O=C(Nc1cccc(C(=O)Nc2c(I)cc(C(F)(C(F)(F)F)C(F)(F)F)cc2OC(F)(F)F)c1F)c1ccc(F)c(F)c1 [Compound 97] | ≥ 70 |  | 100 | 100 | 90 | 90 | ≥ 70 | 90 | 90 | 90 | 90 | ≥ 70 | 95 | 95 | 95 | 90 | 90 | 90 | 95 | 95 | pest or weed control at 0.04 µg/cm2, 0.04 µg/cm2 [6]: 90%; pest or weed control at 0.04 µg/cm2, 0.04 µg/cm2 [10]: 95%
O=C(Nc1cccc(C(=O)Nc2c(I)cc(C(F)(C(F)(F)F)C(F)(F)F)cc2OC(F)F)c1F)c1ccc(F)c(F)c1 [Compound 110] | ≥ 70 | 100 | 100 | 100 | 90 | 90 | ≥ 70 | 90 | 90 | 90 | 90 | ≥ 70 | 95 | 95 | 95 | 90 | 90 | 90 | 95 | 95 | pest or weed control at 0.04 µg/cm2, 0.04 µg/cm2 [3]: 90%; pest or weed control at 0.032 ppm [8]: 95%
O=C(Nc1cccc(C(=O)Nc2c(Br)cc(C(F)(C(F)(F)F)C(F)(F)C(F)(F)F)cc2OC(F)F)c1F)c1ccc(F)cc1 (centres unmarked) [Compound 106] | ≥ 70 | 100 | 100 | 100 | 90 | 90 | ≥ 70 | 90 | 90 | 90 | 90 | ≥ 70 | 95 | 95 | 95 | 90 | 90 | 90 | 95 | 95 | pest or weed control at 6.4 ng [2]: 100%; pest or weed control at 0.04 µg/cm2, 0.04 µg/cm2 [3]: 90%; pest or weed control at 0.04 µg/cm2, 0.04 µg/cm2 [5]: 90%; pest or weed control at 0.04 µg/cm2, 0.04 µg/cm2 [6]: 90%; pest or weed control at 0.0064 ppm ([8]; dose 0.0064 ppm in citrated cattle blood): 95%; pest or weed control at 0.032 ppm [8]: 95%; pest or weed control at 0.04 µg/cm2, 0.04 µg/cm2 [10]: 95%
O=C(Nc1cccc(C(=O)Nc2c(I)cc(C(F)(C(F)(F)F)C(F)(F)C(F)(F)F)cc2C(F)(F)F)c1F)c1ccc(F)nc1 (centres unmarked) [Compound 82] | ≥ 70 | 100 | 100 | 100 | 90 | 90 | ≥ 70 | 90 | 90 | 90 | 90 | ≥ 70 | 95 | 95 | 95 |  |  | 90 | 95 | 95 | pest or weed control at 6.4 ng [2]: 100%; pest or weed control at 0.04 µg/cm2, 0.04 µg/cm2 [5]: 90%; pest or weed control at 0.04 µg/cm2, 0.04 µg/cm2 [6]: 90%; pest or weed control at 0.04 µg/cm2, 0.04 µg/cm2 [10]: 95%
O=C(Nc1cccc(C(=O)Nc2c(I)cc(C(F)(C(F)(F)F)C(F)(F)C(F)(F)F)cc2C(F)(F)F)c1F)c1ccc(F)c(F)c1 (centres unmarked) [Compound 78] | ≥ 70 | 100 | 100 | 100 | 90 | 90 | ≥ 70 | 90 | 90 | 90 | 90 | ≥ 70 | 95 | 95 | 95 | 90 | 90 | 90 | 95 | 95 | pest or weed control at 0.04 µg/cm2, 0.04 µg/cm2 [6]: 90%
